Laboratory results from ChEMBL document CHEMBL1201861, “Genomics of Drug Sensitity in Cancer screening data, Wellcome Trust Sanger Institute”.

Columns and labels:
Experiment in all cases: cells
OMC-1 = format: functional, cell-based, Homo sapiens; conditions: Homo sapiens, OMC-1
Description: SANGER: Inhibition of human OMC-1 cell growth in a cell viability assay.

MV4-11 = format: functional, cell-based, Homo sapiens, MV-4-11; conditions: Homo sapiens, MV4-11
Description: SANGER: Inhibition of human MV-4-11 cell growth in a cell viability assay.

UACC-257 = format: functional, cell-based, Homo sapiens; conditions: Homo sapiens, UACC-257
Description: SANGER: Inhibition of human UACC-257 cell growth in a cell viability assay.

DB = format: functional, cell-based, Homo sapiens; conditions: Homo sapiens, DB
Description: SANGER: Inhibition of human DB cell growth in a cell viability assay.

NCI-H446 = format: functional, cell-based, Homo sapiens; conditions: Homo sapiens, NCI-H446
Description: SANGER: Inhibition of human NCI-H446 cell growth in a cell viability assay.

HH = format: functional, cell-based, Homo sapiens; conditions: Homo sapiens, HH
Description: SANGER: Inhibition of human HH cell growth in a cell viability assay.

LOX IMVI = format: functional, cell-based, Homo sapiens; conditions: Homo sapiens, LOX IMVI
Description: SANGER: Inhibition of human LOXIMVI cell growth in a cell viability assay.

TE-9 = format: functional, cell-based, Homo sapiens; conditions: Homo sapiens, TE-9
Description: SANGER: Inhibition of human TE-9 cell growth in a cell viability assay.

SF-539 = format: functional, cell-based, Homo sapiens; conditions: Homo sapiens, SF-539
Description: SANGER: Inhibition of human SF539 cell growth in a cell viability assay.

TGBC24TKB = format: functional, cell-based, Homo sapiens; conditions: Homo sapiens, TGBC24TKB
Description: SANGER: Inhibition of human TGBC24TKB cell growth in a cell viability assay.

SNB-75 = format: functional, cell-based, Homo sapiens; conditions: Homo sapiens, SNB-75
Description: SANGER: Inhibition of human SNB75 cell growth in a cell viability assay.

KG-1 = format: functional, cell-based, Homo sapiens; conditions: Homo sapiens, KG-1
Description: SANGER: Inhibition of human KG-1 cell growth in a cell viability assay.

HT = format: functional, cell-based, Homo sapiens; conditions: Homo sapiens, HT
Description: SANGER: Inhibition of human HT cell growth in a cell viability assay.

NCI-H1581 = format: functional, cell-based, Homo sapiens; conditions: Homo sapiens, NCI-H1581
Description: SANGER: Inhibition of human NCI-H1581 cell growth in a cell viability assay.

TGBC1TKB = format: functional, cell-based, Homo sapiens; conditions: Homo sapiens, TGBC1TKB
Description: SANGER: Inhibition of human TGBC1TKB cell growth in a cell viability assay.

LB771-HNC = format: functional, cell-based, Homo sapiens; conditions: Homo sapiens, LB771-HNC
Description: SANGER: Inhibition of human LB771-HNC cell growth in a cell viability assay.

Calu-6 = format: functional, cell-based, Homo sapiens; conditions: Homo sapiens, Calu-6
Description: SANGER: Inhibition of human Calu-6 cell growth in a cell viability assay.

ES3 = format: functional, cell-based, Homo sapiens; conditions: Homo sapiens, ES3
Description: SANGER: Inhibition of human ES3 cell growth in a cell viability assay.

IST-SL1 = format: functional, cell-based, Homo sapiens; conditions: Homo sapiens, IST-SL1
Description: SANGER: Inhibition of human IST-SL1 cell growth in a cell viability assay.

CAS-1 = format: functional, cell-based, Homo sapiens; conditions: Homo sapiens, CAS-1
Description: SANGER: Inhibition of human CAS-1 cell growth in a cell viability assay.

SW 962 = format: functional, cell-based, Homo sapiens; conditions: Homo sapiens, SW 962
Description: SANGER: Inhibition of human SW962 cell growth in a cell viability assay.

DSH1 = format: functional, cell-based, Homo sapiens; conditions: Homo sapiens, DSH1
Description: SANGER: Inhibition of human DSH1 cell growth in a cell viability assay.

HCC2157 = format: functional, cell-based, Homo sapiens; conditions: Homo sapiens, HCC2157
Description: SANGER: Inhibition of human HCC2157 cell growth in a cell viability assay.

L-428 = format: functional, cell-based, Homo sapiens; conditions: Homo sapiens, L-428
Description: SANGER: Inhibition of human L-428 cell growth in a cell viability assay.

DMS-114 = format: functional, cell-based, Homo sapiens; conditions: Homo sapiens, DMS-114
SW872 = format: functional, cell-based, Homo sapiens; conditions: Homo sapiens, SW872
Description: SANGER: Inhibition of human SW872 cell growth in a cell viability assay.

NCI-H720 = format: functional, cell-based, Homo sapiens; conditions: Homo sapiens, NCI-H720
Description: SANGER: Inhibition of human NCI-H720 cell growth in a cell viability assay.

ES4 = format: functional, cell-based, Homo sapiens; conditions: Homo sapiens, ES4
Description: SANGER: Inhibition of human ES4 cell growth in a cell viability assay.

NOMO-1 = format: functional, cell-based, Homo sapiens; conditions: Homo sapiens, NOMO-1
Description: SANGER: Inhibition of human NOMO-1 cell growth in a cell viability assay.

AM-38 = format: functional, cell-based, Homo sapiens; conditions: Homo sapiens, AM-38
Description: SANGER: Inhibition of human AM-38 cell growth in a cell viability assay.

SNU1 = format: functional, cell-based, Homo sapiens; conditions: Homo sapiens, SNU1
Description: SANGER: Inhibition of human NCI-SNU-1 cell growth in a cell viability assay.

RXF 393 = format: functional, cell-based, Homo sapiens; conditions: Homo sapiens, RXF 393
Description: SANGER: Inhibition of human RXF393 cell growth in a cell viability assay.

TE-10 = format: functional, cell-based, Homo sapiens; conditions: Homo sapiens, TE-10
Description: SANGER: Inhibition of human TE-10 cell growth in a cell viability assay.

EC-GI-10 = format: functional, cell-based, Homo sapiens; conditions: Homo sapiens, EC-GI-10
Description: SANGER: Inhibition of human EC-GI-10 cell growth in a cell viability assay.

EW-24 = format: functional, cell-based, Homo sapiens; conditions: Homo sapiens, EW-24
Description: SANGER: Inhibition of human EW-24 cell growth in a cell viability assay.

MC116 = format: functional, cell-based, Homo sapiens; conditions: Homo sapiens, MC116
Description: SANGER: Inhibition of human MC116 cell growth in a cell viability assay.

QIMR-WIL = format: functional, cell-based, Homo sapiens; conditions: Homo sapiens, QIMR-WIL
Description: SANGER: Inhibition of human QIMR-WIL cell growth in a cell viability assay.

SK-LMS-1 = format: functional, cell-based, Homo sapiens; conditions: Homo sapiens, SK-LMS-1
Description: SANGER: Inhibition of human SK-LMS-1 cell growth in a cell viability assay.

NCI-H1838 = format: functional, cell-based, Homo sapiens; conditions: Homo sapiens, NCI-H1838
Description: SANGER: Inhibition of human NCI-H1838 cell growth in a cell viability assay.

KM12 = format: functional, cell-based, Homo sapiens; conditions: Homo sapiens, KM12
Description: SANGER: Inhibition of human KM12 cell growth in a cell viability assay.

CCRF-CEM = format: functional, cell-based, Homo sapiens; conditions: Homo sapiens, CCRF-CEM
Description: SANGER: Inhibition of human CCRF-CEM cell growth in a cell viability assay.

ETK-1 = format: functional, cell-based, Homo sapiens; conditions: Homo sapiens, ETK-1
Description: SANGER: Inhibition of human ETK-1 cell growth in a cell viability assay.

KU812 cell line = format: functional, cell-based, Homo sapiens; conditions: Homo sapiens, KU812
Description: SANGER: Inhibition of human KU812 cell growth in a cell viability assay.

C2BBe1 = format: functional, cell-based, Homo sapiens; conditions: Homo sapiens, C2BBe1
Description: SANGER: Inhibition of human C2BBe1 cell growth in a cell viability assay.

NCI-H1648 = format: functional, cell-based, Homo sapiens; conditions: Homo sapiens, NCI-H1648
Description: SANGER: Inhibition of human NCI-H1648 cell growth in a cell viability assay.

MS-1 = format: functional, cell-based, Homo sapiens; conditions: Homo sapiens, MS-1
Description: SANGER: Inhibition of human MS-1 cell growth in a cell viability assay.

OVCAR-4 = format: functional, cell-based, Homo sapiens; conditions: Homo sapiens, OVCAR-4
Description: SANGER: Inhibition of human OVCAR-4 cell growth in a cell viability assay.

LU-134-A = format: functional, cell-based, Homo sapiens; conditions: Homo sapiens, LU-134-A
Description: SANGER: Inhibition of human LU-134-A cell growth in a cell viability assay.

K5 = format: functional, cell-based, Homo sapiens; conditions: Homo sapiens, K5
Description: SANGER: Inhibition of human K5 cell growth in a cell viability assay.

## N#Cc1c(O)c2c(-c3ccc(-c4ccccc4O)cc3)csc2[nH]c1=O
OMC-1
  IC50: > 1020 nM
MV4-11
  IC50: 22.7 nM
UACC-257
  IC50: > 1020 nM
DB
  IC50: 489 nM
NCI-H446
  IC50: > 1020 nM
HH
  IC50: 458 nM
LOX IMVI
  IC50: 88.3 nM
TE-9
  IC50: > 1020 nM
SF-539
  IC50: > 1020 nM
TGBC24TKB
  IC50: > 1020 nM
SNB-75
  IC50: > 1020 nM
KG-1
  IC50: 409 nM
HT
  IC50: 335 nM
NCI-H1581
  IC50: > 1020 nM
TGBC1TKB
  IC50: > 1020 nM
LB771-HNC
  IC50: > 1020 nM
Calu-6
  IC50: > 1020 nM
ES3
  IC50: > 1020 nM
IST-SL1
  IC50: > 1020 nM
CAS-1
  IC50: 193 nM
SW 962
  IC50: > 1020 nM
DSH1
  IC50: > 1020 nM
HCC2157
  IC50: 105 nM
L-428
  IC50: 225 nM
DMS-114
  IC50: > 1020 nM
SW872
  IC50: > 1020 nM
NCI-H720
  IC50: > 1020 nM
ES4
  IC50: > 1020 nM
NOMO-1
  IC50: 263 nM
AM-38
  IC50: 64.4 nM
SNU1
  IC50: 311 nM
RXF 393
  IC50: > 1020 nM
TE-10
  IC50: > 1020 nM
EC-GI-10
  IC50: > 1020 nM
EW-24
  IC50: > 1020 nM
MC116
  IC50: 100 nM
QIMR-WIL
  IC50: 36.4 nM
SK-LMS-1
  IC50: > 1020 nM
NCI-H1838
  IC50: > 1020 nM
KM12
  IC50: 32.1 nM
CCRF-CEM
  IC50: 146 nM
ETK-1
  IC50: > 1020 nM
KU812 cell line
  IC50: > 1020 nM
C2BBe1
  IC50: > 1020 nM
NCI-H1648
  IC50: > 1020 nM
MS-1
  IC50: 827 nM
OVCAR-4
  IC50: > 1020 nM
LU-134-A
  IC50: 231 nM
K5
  IC50: > 1020 nM

## Nc1ccn([C@@H]2O[C@H](CO)[C@@H](O)C2(F)F)c(=O)n1 [GEMCITABINE]
OMC-1
  IC50: 583 nM
MV4-11
  IC50: < 4 nM
UACC-257
  IC50: 364 nM
DB
  IC50: 84.4 nM
NCI-H446
  IC50: 269 nM
HH
  IC50: 35.1 nM
LOX IMVI
  IC50: 1.6 nM
TE-9
  IC50: 190 nM
SF-539
  IC50: 1.02 nM
TGBC24TKB
  IC50: > 1020 nM
SNB-75
  IC50: 37.2 nM
KG-1
  IC50: 62.2 nM
HT
  IC50: > 1020 nM
NCI-H1581
  IC50: > 1020 nM
TGBC1TKB
  IC50: > 1020 nM
LB771-HNC
  IC50: > 1020 nM
Calu-6
  IC50: 1.73 nM
ES3
  IC50: 44.6 nM
IST-SL1
  IC50: 197 nM
CAS-1
  IC50: 955 nM
SW 962
  IC50: 52.4 nM
DSH1
  IC50: 96.5 nM
HCC2157
  IC50: > 1020 nM
L-428
  IC50: 23.6 nM
DMS-114
  IC50: > 1020 nM
SW872
  IC50: < 4 nM
NCI-H720
  IC50: > 1020 nM
ES4
  IC50: < 4 nM
NOMO-1
  IC50: 28.7 nM
AM-38
  IC50: < 4 nM
SNU1
  IC50: < 4 nM
RXF 393
  IC50: > 1020 nM
TE-10
  IC50: 16.2 nM
EC-GI-10
  IC50: > 1020 nM
EW-24
  IC50: > 1020 nM
MC116
  IC50: 482 nM
QIMR-WIL
  IC50: < 4 nM
SK-LMS-1
  IC50: < 4 nM
NCI-H1838
  IC50: > 1020 nM
KM12
  IC50: 91.5 nM
CCRF-CEM
  IC50: 18.8 nM
ETK-1
  IC50: 8.08 nM
KU812 cell line
  IC50: 1.91 nM
C2BBe1
  IC50: > 1020 nM
NCI-H1648
  IC50: 511 nM
MS-1
  IC50: 46.3 nM
OVCAR-4
  IC50: 625 nM
LU-134-A
  IC50: 40 nM
K5
  IC50: 683 nM
